Laboratory results published in patent publication US4514330A, “Carbon-7-substituted atinomycin D analogue” (Trustees of Boston University, priority 1983, dated 1985).
Where two headings read alike, the source gives them in different places.

Assays:
normal CDF1 male mice = experiment: Maximum tolerated dose (LD10) in normal, tumor-free CDF1 male mice; assay type: in vivo; conditions: for MTD (maximum tolerated dose, lethal for 10% of normal mice; = LD10): deaths during 21 days; for MTD dose as multiple of the MTD dose for AMD: q4d 1, 5, 9 schedule; for fold less toxic than AMD: qd 1-4 schedule
Experimental: ^c MTD (maximum tolerated dose) is the lethal dose
(milligrams/kilogram) for 10% normal CDF1 male mice (18-23 g);
were calculated from a plot of log dose vs. percent mortality. Average of
two to three experiments.
Biological Experiments. Determination of LD10 Values. Tumor-free CDF1 male mice weighing 18-23 g were given a broad range of doses of drugs in 10% dimethyl sulfoxide-saline on either days 1, 5 and 9 or on 4 successive days. Drugs were administered intraperitoneally (ip).
The maximum tolerated doses of AMD and analogues that caused deaths in only 10% of the tested animals in 21 days were recorded as MTD. The results are an average of two experiments in each. The MTD values obtained following schedules q4d 1, 5, 9 (three injections) and qd 1-4 (four injections) are recorded in Table IV. These doses are the same as LD10 (lethal dose of 10% of tumor-free animals in 21 days).

P-388 leukemia = experiment: In vivo antitumor activity against P-388 lymphocytic leukemia in CDF1 mice; conditions: for % ILS (percent increase in life span) / MST (median survival time) / cure (over 55 day survivors): days 1, 5, 9; for minimal effective dose: Mus musculus, P388, ip, read-out: MED (minimum effective dose, 40% increase in life span over control); for fold increase in survival time over AMD (1b) or 7-hydroxyactinomycin D (2b): optimal nontoxic dose levels
Experimental: Studies on in vivo activity of AMD and AMD analogues were carried out with P-388 lymphocytic leukemia in CDF1 hybrid mice. The drugs were administered either daily for 4 successive days (qd 1-4) or on days 1, 5 and 9 (q4d 1, 5, 9) beginning 1 day after tumor implantation.
^a Male CDF1 (18-23 g) mice were inoculated intraperitoneally
(ip) with 10^6 P388 cells on day 0. Drugs were administered, also ip,
in 10% dimethyl sulfoxidesaline on days 1, 5 and 9. Test solutions were
kept at 0-4° C., protected from light, and the stability and
homogeneity were checked periodically by TLC and HPLC.
^b MST = median survival time.
^c % ILS = percent increase in life span.
^d Over 55 day survivors. Average of three experiments. The
^a Drugs administed ip once daily either for 4 successive days (qd
1-4) or on days 1, 5 and 9 (q4d 1, 5 9), starting 1 day after tumor
^b MED (minimum effective dose) is the dose (milligrams/kilogram)
providing an increase in life span of 40% over control in P388

calf thymus DNA = experiment: DNA binding by visible absorption and CD spectra of DNA (P)-drug complex; conditions: mole ratio DNA (P)/analogue = 10:1; 3b, 4b and 5b compared; 1.0×10^-5 M, pH 7
Source text: In FIG. 1, absorption (top) and circular dichroism (bottom) spectra in 0.01 M phosphate buffer (pH7) containing EDTA (10^-5 M) and Me2 SO (5%): 3b (...), 4b (---), 5b (--). Concentration of drug in each case was 1.0×10^-5 M. In this respect, they are almost indistinguishable from the known analogue 7-methoxyactinomycin D (5b), whose structure and physical properties we have previously reported. The absorption spectra of all these analogues in aqueous buffer are also almost superimposable. […] The absorption spectrum of the analogues above 240 nm is mainly due to the electronic configuration of the tricyclic chromophore. The CD spectrum in the same wavelength region is an indicator of peptide conformation in actinomycin analogues, because it is the peptide lactone ring that confers optical activity on the nearly planar chromophore. The nature of the CD spectra (3b, 4b and 5b) asserts that in these analogues there is an identical relationship between the chromophores and peptide lactones. This relationship is very important, because during binding to DNA, AMD and some analogues are known to rely on the cooperative role between the chromophore and the peptide lactones for their highly specific DNA-binding property.
Any change in the configurations of the peptide lactones on binding to DNA is generally expressed in the CD spectra of the analogue-DNA complexes. […] The changes in the visible absorption spectra of 3b, 4b and 5b and also their CD spectra observed after adding calf thymus DNA [mole ratio of DNA (P)/analogue=10:1] are identical (FIG. 2). In FIG. 2, the absorption (top) and CD spectra of the DNA (P)-drug complex (ratio 10:1). Concentrations, buffer and line types are as in FIG. 1.

[1] = three injections ip, q4d 1, 5, 9

SMILES | MTD (maximum tolerated dose, lethal for 10% of normal mice; = LD10) (normal CDF1 male mice; four injections ip, qd 1-4) [milligrams/kilogram] | MTD dose as multiple of the MTD dose for AMD (normal CDF1 male mice) [fold] | fold less toxic than AMD (normal CDF1 male mice) [fold] | MTD (maximum tolerated dose, lethal for 10% of normal mice; = LD10) (normal CDF1 male mice; [1]) [milligrams/kilogram] | % ILS (percent increase in life span) (P-388 leukemia; 0.15 mg/kg ip) [%] | MST (median survival time) (P-388 leukemia; 0.15 mg/kg ip) [days] | cure (over 55 day survivors) (P-388 leukemia; 0.15 mg/kg ip) | % ILS (percent increase in life span) (P-388 leukemia; 0.30 mg/kg ip) [%] | MST (median survival time) (P-388 leukemia; 0.30 mg/kg ip) [days] | cure (over 55 day survivors) (P-388 leukemia; 0.30 mg/kg ip) | % ILS (percent increase in life span) (P-388 leukemia; 0.60 mg/kg ip) [%] | MST (median survival time) (P-388 leukemia; 0.60 mg/kg ip) [days] | cure (over 55 day survivors) (P-388 leukemia; 0.60 mg/kg ip) | % ILS (percent increase in life span) (P-388 leukemia; 1.20 mg/kg ip) [%] | MST (median survival time) (P-388 leukemia; 1.20 mg/kg ip) [days] | cure (over 55 day survivors) (P-388 leukemia; 1.20 mg/kg ip) | % ILS (percent increase in life span) (P-388 leukemia; 1.80 mg/kg ip) [%] | MST (median survival time) (P-388 leukemia; 1.80 mg/kg ip) [days] | cure (over 55 day survivors) (P-388 leukemia; 1.80 mg/kg ip) | minimal effective dose (P-388 leukemia; four injections ip, qd 1-4) [mg/kg] | also measured
Cc1c2oc3c(C)c(OCC4CO4)cc(C(=O)N[C@@H]4C(=O)N[C@H](C(C)C)C(=O)N5CCC[C@H]5C(=O)N(C)CC(=O)N(C)[C@@H](C(C)C)C(=O)O[C@@H]4C)c3nc-2c(C(=O)N[C@@H]2C(=O)N[C@H](C(C)C)C(=O)N3CCC[C@H]3C(=O)N(C)CC(=O)N(C)[C@@H](C(C)C)C(=O)O[C@@H]2C)c(N)c1=O (stereo partly drawn) [Compound 3b, 7-(2,3-Epoxypropoxy)actinomycin D] | 1.6 | 14 | 11 | 3.6 | 164 | 29 | 0/7 | 263 | 40 | 1/7 | 255 | 41 | 1/7 | 291 | 43 | 3/7 | 300 | 44 | 3/7 | 0.0375 | % ILS (percent increase in life span) (P-388 leukemia; 2.40 mg/kg ip): 136%; MST (median survival time) (P-388 leukemia; 2.40 mg/kg ip): 26 days; cure (over 55 day survivors) (P-388 leukemia; 2.40 mg/kg ip): 2/7; minimal effective dose (P-388 leukemia; [1]): 0.05 mg/kg; therapeutic index: MTD/MED (P-388 leukemia; four injections ip, qd 1-4): 43; breadth of dose-response curve (P-388 leukemia; ip, q4d 1, 5, 9): very broad; overall activity relative to AMD (P-388 leukemia; ip, q4d 1, 5, 9): superior to AMD; cure (tumor free), animals out of seven treated (P-388 leukemia; optimal dose ranges of 1.2 and 1.8 mg/kg, ip, q4d 1, 5, 9): three; fold increase in survival time over AMD (1b) or 7-hydroxyactinomycin D (2b) (P-388 leukemia; ip, q4d 1, 5, 9): ~2.5 fold; therapeutic index: MTD/MED (P-388 leukemia; [1]): 72; long-term survivors (P-388 leukemia; throughout the dose range, ip, q4d 1, 5, 9): long-term survivors throughout this dose range; changes in visible absorption and CD spectra after adding calf thymus DNA (calf thymus DNA): identical
Cc1c2oc3c(C)c(OCC(O)CO)cc(C(=O)N[C@@H]4C(=O)N[C@H](C(C)C)C(=O)N5CCC[C@H]5C(=O)N(C)CC(=O)N(C)[C@@H](C(C)C)C(=O)O[C@@H]4C)c3nc-2c(C(=O)N[C@@H]2C(=O)N[C@H](C(C)C)C(=O)N3CCC[C@H]3C(=O)N(C)CC(=O)N(C)[C@@H](C(C)C)C(=O)O[C@@H]2C)c(N)c1=O (stereo partly drawn) [Compound 4b, 7-(2,3-Dihydroxypropoxy) actinomycin D] | 1.4 | 7 | 9 | 1.8 | 45 | 16 | 0/7 | 82 | 20 | 2/7 | 136 | 25 | 1/7 | 191 | 32 | 0/7 | 36 | 15 | 0/7 | 0.125 | minimal effective dose (P-388 leukemia; [1]): 0.15 mg/kg; therapeutic index: MTD/MED (P-388 leukemia; four injections ip, qd 1-4): 6; fold increase in survival time over AMD (1b) or 7-hydroxyactinomycin D (2b) (P-388 leukemia; ip, q4d 1, 5, 9): ~1.5 fold; therapeutic index: MTD/MED (P-388 leukemia; [1]): 12; changes in visible absorption and CD spectra after adding calf thymus DNA (calf thymus DNA): identical
